According to article PMC10353390, “Biological and Structural Analyses of New Potent Allosteric Inhibitors of HIV-1 Integrase” (Antimicrobial Agents and Chemotherapy, 2023):

Test system: HIV-1 strains resistant to INSTIs, NRTIs, NNRTIs or PIs
Format: cell-based
Details: for Fold change in EC50 relative to NL4-3, E92Q / Fold change in EC50 relative to NL4-3, G140S / Fold change in EC50 relative to NL4-3, G140S/Q148H / Fold change in EC50 relative to NL4-3, N155H / Fold change in EC50 relative to NL4-3, Q148H / Fold change in EC50 relative to NL4-3, Y143R / Fold change in EC50 relative to NL4-3, E92Q/N155H (pat.) / Fold change in EC50 relative to NL4-3, G140S/Q148H (pat.) / Fold change in EC50 relative to NL4-3, T97A/N155H (pat.): INSTI-resistant; for Fold change in EC50 relative to NL4-3, E92Q / Fold change in EC50 relative to NL4-3, G140S / Fold change in EC50 relative to NL4-3, G140S/Q148H / Fold change in EC50 relative to NL4-3, N155H / Fold change in EC50 relative to NL4-3, Q148H / Fold change in EC50 relative to NL4-3, Y143R / Fold change in EC50 relative to NL4-3, K103N/Y181C: NL4-3 background; for Fold change in EC50 relative to NL4-3, E92Q/N155H (pat.) / Fold change in EC50 relative to NL4-3, G140S/Q148H (pat.) / Fold change in EC50 relative to NL4-3, T97A/N155H (pat.): primary patient-derived strain; for Fold change in EC50 relative to NL4-3, NLAY351717: NRTI-resistant clone; for Fold change in EC50 relative to NL4-3, NLAY351753: NRTI/NNRTI-resistant clone; for Fold change in EC50 relative to NL4-3, K103N/Y181C: NRTI/NNRTIs group; for Fold change in EC50 relative to NL4-3, ARP-4595 / Fold change in EC50 relative to NL4-3, ARP-4596 / Fold change in EC50 relative to NL4-3, ARP-11801 / Fold change in EC50 relative to NL4-3, ARP-11803 / Fold change in EC50 relative to NL4-3, ARP-11807 / Fold change in EC50 relative to NL4-3, ARP-11808: PI-resistant virus
Description: To this end, we used both recombinant viruses constructed by introducing described drug resistance mutations into NL4-3 HIV-1 clone as well as drug-resistant clinical HIV-1 isolates.
MT4 cells growing exponentially at the density of 10^6/mL were infected with HIV-1 strain NL4-3 at a multiplicity of infection (MOI) of 0.001 for 2 h in the presence of different concentrations of compounds, and the CellTiter-Glo luminescent reagent (Promega) was used to quantify cell viability as described previously ([12]).

Q: Which “Fold change in EC50 relative to NL4-3, E92Q” value does the source give for `Cc1cn([C@H]2C[C@H](N=[N+]=[N-])[C@@H](CO)O2)c(=O)[nH]c1=O` [AZT, azidothymidine] here?
A: The value was 1.

Q: And the “Fold change in EC50 relative to NL4-3, G140S” value?
A: Its value is 1.

Q: And the “Fold change in EC50 relative to NL4-3, G140S/Q148H” value?
A: The value was 1.

Q: And the “Fold change in EC50 relative to NL4-3, N155H” value?
A: Its value is 1.

Q: And the “Fold change in EC50 relative to NL4-3, Q148H” value?
A: Its value is 1.

Q: What about the “Fold change in EC50 relative to NL4-3, Y143R” value of the same molecule?
A: The value was 1.

Q: And the “Fold change in EC50 relative to NL4-3, E92Q/N155H (pat.)” value?
A: The value was 1.

Q: And the “Fold change in EC50 relative to NL4-3, G140S/Q148H (pat.)” value?
A: The value was 1.

Q: What about the “Fold change in EC50 relative to NL4-3, T97A/N155H (pat.)” value of the same molecule?
A: Its value is 4.

Q: What about the “Fold change in EC50 relative to NL4-3, NLAY351717” value of the same molecule?
A: The value was 150.

Q: What about the “Fold change in EC50 relative to NL4-3, NLAY351753” value of the same molecule?
A: The value was 210.

Q: What about the “Fold change in EC50 relative to NL4-3, K103N/Y181C” value of the same molecule?
A: The value was 0.1.

Q: And the “Fold change in EC50 relative to NL4-3, ARP-4595” value?
A: Its value is 2.

Q: What about the “Fold change in EC50 relative to NL4-3, ARP-4596” value of the same molecule?
A: The value was 1.

Q: And the “Fold change in EC50 relative to NL4-3, ARP-11801” value?
A: Its value is 1.

Q: And the “Fold change in EC50 relative to NL4-3, ARP-11803” value?
A: Its value is 2.

Q: And the “Fold change in EC50 relative to NL4-3, ARP-11807” value?
A: The value was 2.

Q: What about the “Fold change in EC50 relative to NL4-3, ARP-11808” value of the same molecule?
A: The value was 5.

Q: What does the source list for `CC(C)CN(C[C@@H](O)[C@H](Cc1ccccc1)NC(=O)O[C@H]1CO[C@H]2OCC[C@H]21)S(=O)(=O)c1ccc(N)cc1` [DRV, darunavir]?
A: Fold change in EC50 relative to NL4-3, G140S/Q148H: 1; Fold change in EC50 relative to NL4-3, NLAY351717: 1; Fold change in EC50 relative to NL4-3, NLAY351753: 1; Fold change in EC50 relative to NL4-3, K103N/Y181C: 1; Fold change in EC50 relative to NL4-3, ARP-4595: 1; Fold change in EC50 relative to NL4-3, ARP-4596: 1; Fold change in EC50 relative to NL4-3, ARP-11801: 31; Fold change in EC50 relative to NL4-3, ARP-11803: 24; Fold change in EC50 relative to NL4-3, ARP-11807: 12; Fold change in EC50 relative to NL4-3, ARP-11808: 240

Q: How did the “Fold change in EC50 relative to NL4-3, E92Q” value turn out when `O=C1Nc2ccc(Cl)cc2[C@@](C#CC2CC2)(C(F)(F)F)O1` [EFV, efavirenz] was run?
A: The value was 1.

Q: What about the “Fold change in EC50 relative to NL4-3, G140S” value of the same molecule?
A: Its value is 1.

Q: What about the “Fold change in EC50 relative to NL4-3, G140S/Q148H” value of the same molecule?
A: Its value is 1.

Q: What about the “Fold change in EC50 relative to NL4-3, N155H” value of the same molecule?
A: Its value is 1.

Q: And the “Fold change in EC50 relative to NL4-3, Q148H” value?
A: Its value is 1.

Q: And the “Fold change in EC50 relative to NL4-3, Y143R” value?
A: Its value is 1.

Q: And the “Fold change in EC50 relative to NL4-3, E92Q/N155H (pat.)” value?
A: Its value is 1.

Q: What about the “Fold change in EC50 relative to NL4-3, G140S/Q148H (pat.)” value of the same molecule?
A: The value was 1.

Q: What about the “Fold change in EC50 relative to NL4-3, T97A/N155H (pat.)” value of the same molecule?
A: Its value is 2.

Q: What about the “Fold change in EC50 relative to NL4-3, NLAY351717” value of the same molecule?
A: The value was 2.

Q: And the “Fold change in EC50 relative to NL4-3, NLAY351753” value?
A: The value was 39.

Q: What about the “Fold change in EC50 relative to NL4-3, K103N/Y181C” value of the same molecule?
A: Its value is 51.

Q: And the “Fold change in EC50 relative to NL4-3, ARP-4595” value?
A: Its value is 1.

Q: And the “Fold change in EC50 relative to NL4-3, ARP-4596” value?
A: The value was 1.

Q: And the “Fold change in EC50 relative to NL4-3, ARP-11801” value?
A: The value was 0.5.

Q: And the “Fold change in EC50 relative to NL4-3, ARP-11803” value?
A: Its value is 1.

Q: What about the “Fold change in EC50 relative to NL4-3, ARP-11807” value of the same molecule?
A: Its value is 2.

Q: And the “Fold change in EC50 relative to NL4-3, ARP-11808” value?
A: The value was 1.
